# Data taken from patent publication US20260337208A1, “HETEROCYCLIC DERIVATIVES AS JANUS KINASE INHIBITORS” (CHIESI FARMACEUTICI S.P.A., priority 2022, published 2026).
# How the values were obtained:
# JAK2 = JAK2 (Homo sapiens, UniProt O60674); assay: Biochemical potency on JAK2, TR-FRET (LANCE Ultra kinase assay); conditions: ATP corresponding to Km; cell-free; read-out: JAK2 inhibitory activity (pIC50) (converted)
# Outline: (§1)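 ULight-JAK-1 (Tyr1023) peptide phosphorylation at Km ATP, 1.5 h r.t.; substrate solution held peptide 30/50/20/10 nM and ATP 20/0.7/0.2/12 μM, enzyme solution 0.15/0.083/0.025/0.144 ng/μL (JAK1/JAK2/JAK3/TYK2). EDTA stop, Eu-PT66 antibody TR-FRET read at 665 nm; 11-point 5-fold dilutions from 20 μM; IC50 by variable-slope fit.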
# JAK3 = target: T1, JAK3 (Homo sapiens, UniProt P52333); assay: Biochemical potency on JAK3, TR-FRET (LANCE Ultra kinase assay); conditions: ATP corresponding to Km; cell-free; read-out: JAK3 inhibitory activity (pIC50) (converted)
# T1 sequence (P52333 1-1124): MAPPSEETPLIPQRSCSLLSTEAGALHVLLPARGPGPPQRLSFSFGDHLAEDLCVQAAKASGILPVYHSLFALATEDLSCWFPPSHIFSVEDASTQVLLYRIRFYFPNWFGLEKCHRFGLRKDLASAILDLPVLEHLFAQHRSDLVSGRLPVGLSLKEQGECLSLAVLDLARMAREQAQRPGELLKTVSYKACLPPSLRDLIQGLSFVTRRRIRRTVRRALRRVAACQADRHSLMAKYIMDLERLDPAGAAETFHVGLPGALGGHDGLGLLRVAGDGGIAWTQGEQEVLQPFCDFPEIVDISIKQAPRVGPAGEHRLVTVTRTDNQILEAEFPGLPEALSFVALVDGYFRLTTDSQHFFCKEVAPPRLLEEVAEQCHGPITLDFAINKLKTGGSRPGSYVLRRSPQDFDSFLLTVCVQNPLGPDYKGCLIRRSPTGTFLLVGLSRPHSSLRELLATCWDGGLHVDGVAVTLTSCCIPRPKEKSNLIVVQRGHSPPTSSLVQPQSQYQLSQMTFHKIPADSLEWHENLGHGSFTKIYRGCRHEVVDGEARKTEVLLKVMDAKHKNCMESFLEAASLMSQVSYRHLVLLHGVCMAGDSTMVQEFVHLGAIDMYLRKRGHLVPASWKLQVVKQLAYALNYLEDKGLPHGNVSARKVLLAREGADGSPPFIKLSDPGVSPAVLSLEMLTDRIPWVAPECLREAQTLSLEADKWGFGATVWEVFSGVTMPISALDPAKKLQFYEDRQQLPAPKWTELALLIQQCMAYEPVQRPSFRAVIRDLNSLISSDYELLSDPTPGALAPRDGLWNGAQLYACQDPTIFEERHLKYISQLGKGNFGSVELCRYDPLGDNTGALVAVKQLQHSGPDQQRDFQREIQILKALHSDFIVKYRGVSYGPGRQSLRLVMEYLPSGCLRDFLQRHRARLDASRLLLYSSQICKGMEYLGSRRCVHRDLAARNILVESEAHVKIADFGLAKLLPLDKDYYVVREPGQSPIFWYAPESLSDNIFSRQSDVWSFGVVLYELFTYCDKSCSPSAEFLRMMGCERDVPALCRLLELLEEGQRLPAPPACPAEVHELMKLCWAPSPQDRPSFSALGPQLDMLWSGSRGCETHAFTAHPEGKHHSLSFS
# Outline: as §1
# JAK1 = JAK1 (Homo sapiens, UniProt P23458); assay: Biochemical potency on JAK1, TR-FRET (LANCE Ultra kinase assay); conditions: ATP corresponding to Km; cell-free; read-out: JAK1 inhibitory activity (pIC50) (converted)
# Outline: as §1
# [1] = tested on: pSTAT6 in BEAS-2B human cell line; assay: Inhibition of IL-13 induced pSTAT6 in BEAS; type: cell-based; conditions: for IC50: Homo sapiens, BEAS-2B, 0.5 h, IL-13 trigger, 30 min, parent compound; for Fold difference parent vs predicted acid metabolite: ratio=IC50 predicted acid metabolite/IC50 ester
# Outline: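 BEAS-2B cells grown 48 h, pre-treated 30 min with compound, then stimulated 30 min with IL-13. Lysate pSTAT6 (Tyr641) measured by sandwich ELISA. Eleven 5-fold dilutions from 10 μM, in duplicate, fitted to IC50.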
# TYK2 = TYK2 (Homo sapiens, UniProt P29597); assay: Biochemical potency on Tyk2, TR-FRET (LANCE Ultra kinase assay); conditions: ATP corresponding to Km; cell-free; read-out: TYK2 inhibitory activity (pIC50) (converted)
# Outline: as §1
# TYK2, sequence (P29597 whole entry): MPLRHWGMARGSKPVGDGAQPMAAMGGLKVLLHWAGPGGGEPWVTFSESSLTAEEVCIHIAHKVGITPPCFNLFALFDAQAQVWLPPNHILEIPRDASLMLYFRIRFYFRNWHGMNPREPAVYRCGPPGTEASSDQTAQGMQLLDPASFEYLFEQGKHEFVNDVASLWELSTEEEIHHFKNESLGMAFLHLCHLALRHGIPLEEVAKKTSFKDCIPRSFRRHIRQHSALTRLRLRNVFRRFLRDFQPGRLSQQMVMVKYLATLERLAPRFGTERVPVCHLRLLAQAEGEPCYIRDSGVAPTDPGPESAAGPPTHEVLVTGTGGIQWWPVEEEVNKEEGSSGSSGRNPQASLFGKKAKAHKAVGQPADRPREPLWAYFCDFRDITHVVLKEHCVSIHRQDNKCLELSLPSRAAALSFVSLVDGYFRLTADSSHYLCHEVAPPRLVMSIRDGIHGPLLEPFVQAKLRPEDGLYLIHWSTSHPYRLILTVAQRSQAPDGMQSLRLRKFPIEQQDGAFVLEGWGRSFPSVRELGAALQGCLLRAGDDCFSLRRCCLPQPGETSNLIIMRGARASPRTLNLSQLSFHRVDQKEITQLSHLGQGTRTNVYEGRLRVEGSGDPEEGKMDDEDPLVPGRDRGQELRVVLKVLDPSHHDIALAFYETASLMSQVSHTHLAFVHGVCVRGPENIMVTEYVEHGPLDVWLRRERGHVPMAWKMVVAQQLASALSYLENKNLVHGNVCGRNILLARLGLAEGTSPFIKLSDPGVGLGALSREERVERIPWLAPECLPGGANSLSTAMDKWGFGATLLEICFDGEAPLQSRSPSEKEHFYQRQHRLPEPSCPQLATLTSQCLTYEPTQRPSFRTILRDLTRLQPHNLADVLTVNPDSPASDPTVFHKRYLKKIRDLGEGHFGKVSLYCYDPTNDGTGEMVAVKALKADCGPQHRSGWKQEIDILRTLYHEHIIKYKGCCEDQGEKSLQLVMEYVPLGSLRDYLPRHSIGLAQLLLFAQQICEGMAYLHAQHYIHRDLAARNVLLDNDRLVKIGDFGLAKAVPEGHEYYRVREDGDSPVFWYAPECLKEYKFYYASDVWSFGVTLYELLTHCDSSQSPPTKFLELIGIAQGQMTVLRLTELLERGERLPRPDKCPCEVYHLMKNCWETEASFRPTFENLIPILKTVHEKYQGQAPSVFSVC
# JAK2, sequence (O60674 whole entry): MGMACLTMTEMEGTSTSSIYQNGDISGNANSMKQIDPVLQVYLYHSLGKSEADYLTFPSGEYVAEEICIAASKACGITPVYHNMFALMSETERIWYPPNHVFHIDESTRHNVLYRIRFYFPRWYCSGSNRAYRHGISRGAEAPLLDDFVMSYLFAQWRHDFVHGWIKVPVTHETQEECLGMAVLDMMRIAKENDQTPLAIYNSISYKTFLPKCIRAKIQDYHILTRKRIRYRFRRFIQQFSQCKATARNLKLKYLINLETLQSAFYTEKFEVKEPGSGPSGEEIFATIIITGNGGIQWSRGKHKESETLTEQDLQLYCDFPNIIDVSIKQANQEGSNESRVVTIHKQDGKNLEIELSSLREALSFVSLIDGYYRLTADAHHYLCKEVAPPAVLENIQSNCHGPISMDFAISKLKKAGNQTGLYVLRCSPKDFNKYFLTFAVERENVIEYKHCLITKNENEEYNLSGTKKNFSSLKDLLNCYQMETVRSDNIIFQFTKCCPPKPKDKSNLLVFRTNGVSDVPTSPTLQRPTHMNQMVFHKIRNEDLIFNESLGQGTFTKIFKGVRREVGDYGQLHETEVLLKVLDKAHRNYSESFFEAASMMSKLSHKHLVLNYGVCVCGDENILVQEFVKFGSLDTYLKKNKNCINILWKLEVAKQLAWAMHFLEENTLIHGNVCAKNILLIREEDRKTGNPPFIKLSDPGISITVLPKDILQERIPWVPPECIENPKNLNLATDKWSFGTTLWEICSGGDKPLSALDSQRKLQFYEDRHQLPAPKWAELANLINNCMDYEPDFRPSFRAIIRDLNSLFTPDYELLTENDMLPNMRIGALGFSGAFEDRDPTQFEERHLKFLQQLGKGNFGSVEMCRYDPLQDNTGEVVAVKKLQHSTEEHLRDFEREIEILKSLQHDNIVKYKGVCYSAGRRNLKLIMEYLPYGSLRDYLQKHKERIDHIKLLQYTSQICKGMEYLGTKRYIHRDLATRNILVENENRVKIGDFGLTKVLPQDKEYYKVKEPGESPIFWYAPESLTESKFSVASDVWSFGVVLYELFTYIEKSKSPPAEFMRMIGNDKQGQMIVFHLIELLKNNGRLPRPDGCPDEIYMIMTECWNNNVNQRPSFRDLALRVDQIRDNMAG
# JAK1, sequence (P23458 whole entry): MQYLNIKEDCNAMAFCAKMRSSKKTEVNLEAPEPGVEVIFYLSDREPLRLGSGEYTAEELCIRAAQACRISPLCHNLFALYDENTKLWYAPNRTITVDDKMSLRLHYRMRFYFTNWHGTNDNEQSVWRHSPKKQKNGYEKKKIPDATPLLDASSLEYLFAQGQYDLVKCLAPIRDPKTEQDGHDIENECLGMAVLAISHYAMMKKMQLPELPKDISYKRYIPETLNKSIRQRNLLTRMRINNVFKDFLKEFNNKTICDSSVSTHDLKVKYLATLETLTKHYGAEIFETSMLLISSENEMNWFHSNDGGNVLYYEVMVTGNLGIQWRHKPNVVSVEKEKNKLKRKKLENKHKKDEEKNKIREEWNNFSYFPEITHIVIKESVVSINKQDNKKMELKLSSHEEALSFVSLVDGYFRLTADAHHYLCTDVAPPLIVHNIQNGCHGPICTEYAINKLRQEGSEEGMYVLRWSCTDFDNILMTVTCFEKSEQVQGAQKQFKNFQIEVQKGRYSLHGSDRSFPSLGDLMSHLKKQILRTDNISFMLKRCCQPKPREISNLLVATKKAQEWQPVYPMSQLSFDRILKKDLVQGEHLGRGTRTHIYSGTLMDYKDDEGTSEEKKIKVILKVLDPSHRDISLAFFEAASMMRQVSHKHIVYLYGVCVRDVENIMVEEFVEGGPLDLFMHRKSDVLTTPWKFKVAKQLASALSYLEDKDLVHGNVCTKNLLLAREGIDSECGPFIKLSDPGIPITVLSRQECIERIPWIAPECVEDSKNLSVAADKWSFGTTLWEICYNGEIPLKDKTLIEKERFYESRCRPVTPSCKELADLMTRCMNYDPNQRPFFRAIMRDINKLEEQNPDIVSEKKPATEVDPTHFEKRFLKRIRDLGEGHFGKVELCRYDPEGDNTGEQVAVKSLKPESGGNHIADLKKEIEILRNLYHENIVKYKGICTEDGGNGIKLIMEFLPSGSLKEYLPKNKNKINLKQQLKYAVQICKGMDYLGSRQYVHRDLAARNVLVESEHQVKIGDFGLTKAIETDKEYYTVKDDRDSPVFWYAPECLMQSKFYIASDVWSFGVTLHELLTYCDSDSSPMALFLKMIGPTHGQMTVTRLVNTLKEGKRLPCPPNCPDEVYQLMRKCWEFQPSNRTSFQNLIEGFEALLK
SMILES,IC50 (JAK2) [nM],IC50 (JAK3) [nM],IC50 (JAK1) [nM],IC50 [1] [nM],Fold difference parent vs predicted acid metabolite [1],IC50 (TYK2) [nM]
"COc1cc2c(cc1-n1nc(C(=O)NCCN3CCC(C(=O)OC4CCOCC4)CC3)c3cnc(-c4cnn5cccnc45)cc31)OCCN2 [Example 17, tetrahydro-2H-pyran-4-yl 1-(2-(1-(6-methoxy-3,4-dihydro-2H-benzo[b][1,4]oxazin-7-yl)-6-(pyrazolo[1,5-a]pyrimidin-3-yl)-1H-pyrazolo[4,3-c]pyridine-3-carboxamido)ethyl)piperidine-4-carboxylate]",≤ 5.01,≤ 5.01,≤ 5.01,≤ 5.01,kkkk (ratio≥200),5.01 to 50.1
"CCOC(=O)C1CCN(CCNC(=O)c2nn(-c3cc4c(cc3OC)NCCS4)c3cc(-c4cnn5cccnc45)ncc23)CC1 [Example 1, ethyl 1-(2-(1-(6-methoxy-3,4-dihydro-2H-benzo[b][1,4]thiazin-7-yl)-6-(pyrazolo[1,5-a]pyrimidin-3-yl)-1H-pyrazolo[4,3-c]pyridine-3-carboxamido)ethyl)piperidine-4-carboxylate]",≤ 5.01,≤ 5.01,≤ 5.01,≤ 5.01,kk (100>ratio≥10),≤ 5.01
"COc1cc2c(cc1-n1nc(C(=O)NCCN3CCC(C(=O)OCC4CCOCC4)CC3)c3cnc(-c4cnn5cccnc45)cc31)OCCN2 [Example 18, (tetrahydro-2H-pyran-4-yl)methyl 1-(2-(1-(6-methoxy-3,4-dihydro-2H-benzo[b][1,4]oxazin-7-yl)-6-(pyrazolo[1,5-a]pyrimidin-3-yl)-1H-pyrazolo[4,3-c]pyridine-3-carboxamido)ethyl)piperidine-4-carboxylate]",≤ 5.01,≤ 5.01,≤ 5.01,≤ 5.01,kkkk (ratio≥200),5.01 to 50.1
"CCOC(=O)COC(=O)Nc1nn(-c2cc3c(cc2OC)NCCO3)c2cc(-c3cnn4cccnc34)ncc12 [Example 39, ethyl 2-(((1-(6-methoxy-3,4-dihydro-2H-benzo[b][1,4]oxazin-7-yl)-6-(pyrazolo[1,5-a]pyrimidin-3-yl)-1H-pyrazolo[4,3-c]pyridin-3-yl)carbamoyl)oxy)acetate]",≤ 5.01,≤ 5.01,≤ 5.01,5.01 to 50.1,kkkk (ratio≥200),5.01 to 50.1
"COc1cc2c(cc1-n1nc(C(=O)OCC3CN(C)CCO3)c3cnc(-c4cnn5cccnc45)cc31)OCCN2 (centres unmarked) [Example 46, (4-methylmorpholin-2-yl)methyl 1-(6-methoxy-3,4-dihydro-2H-benzo[b][1,4]oxazin-7-yl)-6-(pyrazolo[1,5-a]pyrimidin-3-yl)-1H-pyrazolo[4,3-c]pyridine-3-carboxylate]",≤ 5.01,≤ 5.01,≤ 5.01,5.01 to 50.1,kkk (200>ratio≥100),5.01 to 50.1
"COC(=O)[C@@H]1CCN(CCNC(=O)c2nn(-c3cc4c(cc3OC)NCCO4)c3cc(-c4cnn5cccnc45)ncc23)C1 [Example 29, methyl (R)-1-(2-(1-(6-methoxy-3,4-dihydro-2H-benzo[b][1,4]oxazin-7-yl)-6-(pyrazolo[1,5-a]pyrimidin-3-yl)-1H-pyrazolo[4,3-c]pyridine-3-carboxamido)ethyl)pyrrolidine-3-carboxylate]",≤ 5.01,≤ 5.01,≤ 5.01,≤ 5.01,kkk (200>ratio≥100),5.01 to 50.1
"COCC(C)(C)OC(=O)C1CCN(CCNC(=O)c2nn(-c3cc4c(cc3OC)NCCO4)c3cc(-c4cnn5cccnc45)ncc23)CC1 [Example 5, 1-methoxy-2-methylpropan-2-yl 1-(2-(1-(6-methoxy-3,4-dihydro-2H-benzo[b][1,4]oxazin-7-yl)-6-(pyrazolo[1,5-a]pyrimidin-3-yl)-1H-pyrazolo[4,3-c]pyridine-3-carboxamido)ethyl)piperidine-4-carboxylate]",≤ 5.01,≤ 5.01,≤ 5.01,≤ 5.01,kkkk (ratio≥200),5.01 to 50.1
"CCOC(=O)C1CCN(CCNC(=O)c2nn(-c3cc4c(cc3OC)NCCO4)c3cc(Nc4ncc[nH]c4=O)ncc23)CC1 [Example 58, ethyl 1-(2-(1-(6-methoxy-3,4-dihydro-2H-benzo[b][1,4]oxazin-7-yl)-6-((3-oxo-3,4-dihydropyrazin-2-yl)amino)-1H-pyrazolo[4,3-c]pyridine-3-carboxamido)ethyl)piperidine-4-carboxylate]",≤ 5.01,≤ 5.01,≤ 5.01,5.01 to 50.1,kkkk (ratio≥200),5.01 to 50.1
"COC(=O)[C@H]1CCN(CCNC(=O)c2nn(-c3cc4c(cc3OC)NCCO4)c3cc(-c4cnn5cccnc45)ncc23)C1 [Example 30, methyl (S)-1-(2-(1-(6-methoxy-3,4-dihydro-2H-benzo[b][1,4]oxazin-7-yl)-6-(pyrazolo[1,5-a]pyrimidin-3-yl)-1H-pyrazolo[4,3-c]pyridine-3-carboxamido)ethyl)pyrrolidine-3-carboxylate]",≤ 5.01,≤ 5.01,≤ 5.01,5.01 to 50.1,kkkk (ratio≥200),5.01 to 50.1
"COC(=O)Cc1cccc(CN(C)CCNC(=O)c2nn(-c3cc4c(cc3OC)NCCO4)c3cc(-c4cnn5cccnc45)ncc23)c1 [Example 37, methyl 2-(3-(((2-(1-(6-methoxy-3,4-dihydro-2H-benzo[b][1,4]oxazin-7-yl)-6-(pyrazolo[1,5-a]pyrimidin-3-yl)-1H-pyrazolo[4,3-c]pyridine-3-carboxamido)ethyl)(methyl)amino)methyl)phenyl)acetate]",≤ 5.01,≤ 5.01,5.01 to 50.1,5.01 to 50.1,,5.01 to 50.1
"COc1cc2c(cc1-n1nc(C(=O)NCCN3CCC(C(=O)OCC(C)(C)N(C)C)CC3)c3cnc(-c4cnn5cccnc45)cc31)OCCN2 [Example 20, 2-(dimethylamino)-2-methylpropyl 1-(2-(1-(6-methoxy-3,4-dihydro-2H-benzo[b][1,4]oxazin-7-yl)-6-(pyrazolo[1,5-a]pyrimidin-3-yl)-1H-pyrazolo[4,3-c]pyridine-3-carboxamido)ethyl)piperidine-4-carboxylate]",≤ 5.01,≤ 5.01,≤ 5.01,5.01 to 50.1,kkk (200>ratio≥100),5.01 to 50.1
"COc1cc2c(cc1-n1nc(C(=O)NCCN3CCC(C(=O)O[C@H]4CCN(C)C4)CC3)c3cnc(-c4cnn5cccnc45)cc31)OCCN2 [Example 24, (S)-1-methylpyrrolidin-3-yl 1-(2-(1-(6-methoxy-3,4-dihydro-2H-benzo[b][1,4]oxazin-7-yl)-6-(pyrazolo[1,5-a]pyrimidin-3-yl)-1H-pyrazolo[4,3-c]pyridine-3-carboxamido)ethyl)piperidine-4-carboxylate]",≤ 5.01,≤ 5.01,≤ 5.01,5.01 to 50.1,kkk (200>ratio≥100),5.01 to 50.1
